Drawing on patent US20240270821A1, “GIP/GLP1/GCG TRI-RECEPTOR AGONISTS AND USES THEREOF” (priority 2023, published 2024), this text covers EC50 for 5 compounds.

Holding throughout (format): cell-based
One test has as its target human GcgR (Homo sapiens, UniProt P47871). As to the kind of experiment: Functional cAMP activity in the presence of 1% HSA. The conditions noted are these: read-out: cAMP Rel EC50, hGcgR.
In test [1] the target is T1, hGIPR (Homo sapiens, UniProt P48546).
T1 sequence (P48546 22-466): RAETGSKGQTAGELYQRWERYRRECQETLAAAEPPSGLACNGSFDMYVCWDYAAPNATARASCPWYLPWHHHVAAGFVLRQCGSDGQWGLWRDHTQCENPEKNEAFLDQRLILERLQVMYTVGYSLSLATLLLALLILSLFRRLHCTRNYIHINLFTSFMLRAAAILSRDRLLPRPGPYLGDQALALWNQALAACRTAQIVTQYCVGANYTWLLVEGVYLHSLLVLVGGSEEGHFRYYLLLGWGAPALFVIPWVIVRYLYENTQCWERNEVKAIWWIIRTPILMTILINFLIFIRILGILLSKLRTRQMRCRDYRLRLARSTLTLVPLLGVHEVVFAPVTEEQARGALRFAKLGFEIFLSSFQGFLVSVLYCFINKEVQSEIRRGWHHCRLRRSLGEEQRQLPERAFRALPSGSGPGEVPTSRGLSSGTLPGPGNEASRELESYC
As to the kind of experiment: Functional cAMP activity in the presence of 1% HSA. The settings on record: read-out: cAMP Rel EC50, hGIPR.

For test [2], the target named is T2, hGLP-1R (Homo sapiens, UniProt P43220). As to the kind of experiment: Functional cAMP activation in the presence of 0.1% casein (no HSA). The settings on record: read-out: Relative cAMP EC50, hGLP-1R.
T2 sequence (P43220 24-463): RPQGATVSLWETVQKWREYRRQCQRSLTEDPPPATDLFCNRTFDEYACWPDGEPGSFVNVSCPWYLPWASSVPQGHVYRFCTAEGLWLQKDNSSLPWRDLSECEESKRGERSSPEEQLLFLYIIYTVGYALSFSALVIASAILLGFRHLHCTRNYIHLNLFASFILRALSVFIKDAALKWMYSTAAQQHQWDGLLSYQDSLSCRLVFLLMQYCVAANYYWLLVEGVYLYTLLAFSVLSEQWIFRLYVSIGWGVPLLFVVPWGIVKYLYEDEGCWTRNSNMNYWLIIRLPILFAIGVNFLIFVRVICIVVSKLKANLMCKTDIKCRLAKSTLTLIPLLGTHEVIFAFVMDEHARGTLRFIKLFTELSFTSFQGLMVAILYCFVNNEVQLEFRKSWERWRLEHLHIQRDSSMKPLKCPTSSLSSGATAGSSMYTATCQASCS
The target in a further test is hGcgR (Homo sapiens, UniProt P47871). The description is as above. The conditions noted are these: read-out: Relative cAMP EC50, hGcgR.
hGcgR, sequence (P47871 26-477): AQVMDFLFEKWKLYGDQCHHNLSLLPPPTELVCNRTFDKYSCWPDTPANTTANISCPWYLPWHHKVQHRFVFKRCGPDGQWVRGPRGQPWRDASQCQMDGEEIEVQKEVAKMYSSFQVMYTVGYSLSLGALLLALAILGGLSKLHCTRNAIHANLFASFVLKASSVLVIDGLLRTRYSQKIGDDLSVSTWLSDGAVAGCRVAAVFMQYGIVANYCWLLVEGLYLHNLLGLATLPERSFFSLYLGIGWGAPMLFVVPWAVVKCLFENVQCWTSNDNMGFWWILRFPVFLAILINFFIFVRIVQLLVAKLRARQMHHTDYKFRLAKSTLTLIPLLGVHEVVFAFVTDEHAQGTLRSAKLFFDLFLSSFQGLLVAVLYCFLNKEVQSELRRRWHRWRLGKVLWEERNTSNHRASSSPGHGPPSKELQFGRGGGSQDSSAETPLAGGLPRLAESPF
Test [3] concerns the target T1, hGIPR. The test is described as above. The conditions noted are these: read-out: Relative cAMP EC50, hGIPR.
Test [4] addresses T2, hGLP-1R. Put plainly: Functional cAMP activity in the presence of 1% HSA. The conditions noted are these: read-out: cAMP Rel EC50, hGLP-1R.
Where [5] appears, read: HEK-293 clonal cell line, 1% HSA, geometric mean of relative EC50.
Where [6] appears, read: in the presence of 0.1% casein (no HSA), geometric mean of relative EC50.

Molecules are shown by their SMILES. Read-outs that look alike come from different tables or passages of the source.
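Wherever Relative cAMP EC50, hGIPR is given: intracellular cAMP rise after 30 min at 37 °C read by HTRF against a standard curve, scaled between buffer alone (0%) and top control ligand concentration (100%), four-parameter fit.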
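Wherever Relative cAMP EC50, hGLP-1R is given: intracellular cAMP rise after 30 min at 37 °C read by HTRF, normalized between buffer only (0%) and maximal control ligand (100%), four-parameter variable-slope fit.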
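Wherever Relative cAMP EC50, hGcgR is given: intracellular cAMP rise after 30 min at 37 °C, read by HTRF against a cAMP standard curve, scaled from buffer only (0%) to maximal control ligand response (100%).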

human GcgR, sequence (P47871 26-477): as above

One may read the EC50 as the midpoint of the concentration-response curve. With `CC[C@H](C)[C@H](NC(=O)[C@H](Cc1ccccc1)NC(=O)[C@H](CCCN)NC(=O)C(C)(C)NC(=O)[C@H](CCC(N)=O)NC(=O)[C@H](C)NC(=O)[C@H](CCCCNC(=O)[C@H](CCC(=O)O)NC(=O)CC[C@H](NC(=O)CCCCCCCCCCCCCCCCC(=O)O)C(=O)O)NC(=O)[C@H](CCCN)NC(=O)[C@H](CC(=O)O)NC(=O)[C@H](CC(C)C)NC(=O)[C@](C)(CC(C)C)NC(=O)[C@@H](NC(=O)[C@](C)(CO)NC(=O)[C@H](Cc1ccncc1)NC(=O)[C@H](CC(=O)O)NC(=O)[C@H](CO)NC(=O)[C@@H](NC(=O)[C@](C)(Cc1ccccc1F)NC(=O)[C@@H](NC(=O)CNC(=O)[C@H](CCC(N)=O)NC(=O)C(C)(C)NC(=O)[C@@H](N)Cc1ccc(O)cc1)[C@@H](C)O)[C@@H](C)O)[C@@H](C)CC)C(=O)N[C@H](CCC(=O)O)C(=O)N[C@@](C)(Cc1ccc(O)cc1)C(=O)N[C@@H](CC(C)C)C(=O)N[C@@H](CCC(N)=O)C(=O)N[C@@H](CCC(=O)O)C(=O)NCC(=O)NCC(=O)N1CCC[C@H]1C(=O)N[C@@H](CO)C(=O)N[C@@H](CO)C(=O)NCC(=O)N[C@@H](CCC(=O)O)C(=O)N1CCC[C@H]1C(=O)N1CCC[C@H]1C(=O)N1CCC[C@H]1C(=O)N[C@@H](CCC(=O)O)C(=O)NCC(=O)N[C@H](C(=O)N[C@@H](CCC(=O)O)C(=O)N[C@@H](CCC(=O)O)C(=O)N[C@@H](CCC(=O)O)C(N)=O)[C@@H](C)O` [Example 594], the EC50 is 570 nM on human GcgR; 3.32 nM on hGIPR [1]; 0.561 nM at hGLP-1R [2]; 8.35 nM at hGcgR; 0.0541 nM on hGIPR [3]; 49.1 nM at hGLP-1R [4].
On to `CC[C@H](C)[C@H](NC(=O)[C@H](Cc1ccccc1)NC(=O)[C@H](CCCN)NC(=O)C(C)(C)NC(=O)[C@H](CCC(N)=O)NC(=O)[C@H](C)NC(=O)[C@H](CCCCNC(=O)[C@@H](CCC(=O)O)NC(=O)CC[C@H](NC(=O)CCCCCCCCCCCCCCCCC(=O)O)C(=O)O)NC(=O)[C@H](CCCN)NC(=O)[C@H](CC(=O)O)NC(=O)[C@H](CC(C)C)NC(=O)[C@](C)(CC(C)C)NC(=O)[C@@H](NC(=O)[C@](C)(CO)NC(=O)[C@H](Cc1ccncc1)NC(=O)[C@H](CC(=O)O)NC(=O)[C@H](CO)NC(=O)[C@@H](NC(=O)[C@](C)(Cc1ccccc1F)NC(=O)[C@@H](NC(=O)CNC(=O)[C@H](CCC(N)=O)NC(=O)C(C)(C)NC(=O)[C@@H](N)Cc1ccc(O)cc1)[C@@H](C)O)[C@@H](C)O)[C@@H](C)CC)C(=O)N[C@H](CCC(=O)O)C(=O)N[C@@](C)(Cc1ccc(O)cc1)C(=O)N[C@@H](CC(C)C)C(=O)N[C@@H](CCC(N)=O)C(=O)N[C@@H](CCC(=O)O)C(=O)NCC(=O)NCC(=O)N1CCC[C@H]1C(=O)N[C@@H](CO)C(=O)N[C@@H](CO)C(=O)NCC(=O)N[C@@H](CCC(=O)O)C(=O)N1CCC[C@H]1C(=O)N1CCC[C@H]1C(=O)N1CCC[C@H]1C(=O)N[C@@H](CCC(=O)O)C(=O)NCC(=O)N[C@H](C(=O)N[C@@H](CCC(=O)O)C(=O)N[C@@H](CCC(=O)O)C(=O)N[C@@H](CCC(=O)O)C(N)=O)[C@@H](C)O` [Example 596], for which the concentration for a half-maximal effect (EC50) at human GcgR was 385 nM; on hGIPR [1], 1.98 nM; at hGLP-1R [2], 0.592 nM; at hGcgR, 5.71 nM; at hGIPR [3], 0.0455 nM; on hGLP-1R [4] it was 36.6 nM.
Take `CC[C@H](C)[C@H](NC(=O)[C@H](Cc1ccccc1)NC(=O)[C@H](CCCN)NC(=O)C(C)(C)NC(=O)[C@H](CCC(N)=O)NC(=O)[C@H](C)NC(=O)[C@H](CCCCNC(=O)CC[C@H](NC(=O)CNC(=O)CCCCCCCCCCCCCCCCC(=O)O)C(=O)O)NC(=O)[C@H](CCCN)NC(=O)[C@H](CC(=O)O)NC(=O)[C@H](CC(C)C)NC(=O)[C@](C)(CC(C)C)NC(=O)[C@@H](NC(=O)[C@](C)(CO)NC(=O)[C@H](Cc1ccncc1)NC(=O)[C@H](CC(=O)O)NC(=O)[C@H](CO)NC(=O)[C@@H](NC(=O)[C@](C)(Cc1ccccc1F)NC(=O)[C@@H](NC(=O)CNC(=O)[C@H](CCC(N)=O)NC(=O)C(C)(C)NC(=O)[C@@H](N)Cc1ccc(O)cc1)[C@@H](C)O)[C@@H](C)O)[C@@H](C)CC)C(=O)N[C@H](CCC(=O)O)C(=O)N[C@@](C)(Cc1ccc(O)cc1)C(=O)N[C@@H](CC(C)C)C(=O)N[C@@H](CCC(N)=O)C(=O)N[C@@H](CCC(=O)O)C(=O)NCC(=O)NCC(=O)N1CCC[C@H]1C(=O)N[C@@H](CO)C(=O)N[C@@H](CO)C(=O)NCC(=O)N[C@@H](CCC(=O)O)C(=O)N1CCC[C@H]1C(=O)N1CCC[C@H]1C(=O)N1CCC[C@H]1C(=O)N[C@@H](CCC(=O)O)C(=O)NCC(=O)N[C@H](C(=O)N[C@@H](CCC(=O)O)C(=O)N[C@@H](CCC(=O)O)C(N)=O)[C@@H](C)O` [Example 658]: the EC50 on human GcgR (setting [5]) was found to be 376 nM; at hGIPR [1] (setting [5]), 12 nM; at hGLP-1R [2] (setting [6]), 0.34 nM; on hGcgR (setting [6]) it was 1.05 nM; at hGIPR [3] (setting [6]) it was 0.0379 nM; at hGLP-1R [4] (setting [5]) it was 106 nM.
Consider `CC[C@H](C)[C@H](NC(=O)[C@H](Cc1ccccc1)NC(=O)[C@H](C)NC(=O)C(C)(C)NC(=O)[C@H](CCC(N)=O)NC(=O)[C@H](C)NC(=O)[C@H](CCCCNC(=O)CC[C@H](NC(=O)CC[C@H](NC(=O)CCCCCCCCCCCCCCCCC(=O)O)C(=O)O)C(=O)O)NC(=O)[C@H](CCCCN)NC(=O)[C@H](CC(=O)O)NC(=O)[C@H](CC(C)C)NC(=O)[C@H](CC(C)C)NC(=O)[C@@H](NC(=O)[C@H](CO)NC(=O)[C@H](Cc1ccncc1)NC(=O)[C@H](CC(=O)O)NC(=O)[C@H](CO)NC(=O)[C@@H](NC(=O)[C@](C)(Cc1ccccc1F)NC(=O)[C@@H](NC(=O)CNC(=O)[C@H](CCC(N)=O)NC(=O)C(C)(C)NC(=O)[C@@H](N)Cc1ccc(O)cc1)[C@@H](C)O)[C@@H](C)O)[C@@H](C)CC)C(=O)N[C@@H](CCC(=O)O)C(=O)N[C@@H](Cc1ccc(O)cc1)C(=O)N[C@@H](CC(C)C)C(=O)N[C@@H](CCC(=O)O)C(=O)N[C@@H](CCC(=O)O)C(=O)NCC(=O)NCC(=O)N1CCC[C@H]1C(=O)N[C@@H](CO)C(=O)N[C@@H](CO)C(=O)NCC(=O)N[C@@H](C)C(=O)N1CCC[C@H]1C(=O)N1CCC[C@H]1C(=O)N1CCC[C@H]1C(=O)N[C@@H](CCC(=O)O)C(=O)NCC(=O)N[C@H](C(=O)NCC(=O)N[C@@H](CCC(=O)O)C(N)=O)[C@@H](C)O` [Example 660], for which the EC50 on human GcgR is 455 nM; on hGIPR [1] it was 4.64 nM; on hGLP-1R [2], 1.27 nM; at hGcgR, 7.38 nM; on hGIPR [3], 0.0646 nM; on hGLP-1R [4] it was 76.9 nM.
As to `CC[C@H](C)[C@H](NC(=O)[C@H](CC(C)C)NC(=O)[C@](C)(Cc1ccc(O)cc1)NC(=O)[C@@H](CCC(=O)O)NC(=O)[C@@H](NC(=O)[C@H](Cc1ccccc1)NC(=O)[C@H](CCC(=O)O)NC(=O)C(C)(C)NC(=O)[C@H](C)NC(=O)[C@H](C)NC(=O)[C@H](CCCCNC(=O)COCCOCCNC(=O)CC[C@H](NC(=O)CCCCCCCCCCCCCCCCC(=O)O)C(=O)O)NC(=O)[C@H](CCCN)NC(=O)[C@H](CC(=O)O)NC(=O)[C@H](CC(C)C)NC(=O)[C@](C)(CC(C)C)NC(=O)[C@@H](NC(=O)[C@](C)(CO)NC(=O)[C@H](Cc1ccncc1)NC(=O)[C@H](CC(=O)O)NC(=O)[C@H](CO)NC(=O)[C@@H](NC(=O)[C@](C)(Cc1ccccc1F)NC(=O)[C@@H](NC(=O)CNC(=O)[C@H](CCC(N)=O)NC(=O)C(C)(C)NC(=O)[C@@H](N)Cc1ccc(O)cc1)[C@@H](C)O)[C@@H](C)O)[C@@H](C)CC)[C@@H](C)CC)C(=O)N[C@@H](CCC(=O)O)C(=O)NCC(=O)NCC(=O)N1CCC[C@H]1C(=O)N[C@@H](CO)C(=O)N[C@@H](CO)C(=O)NCC(=O)N[C@@H](C)C(=O)N1CCC[C@H]1C(=O)N1CCC[C@H]1C(=O)N1CCC[C@H]1C(=O)N[C@@H](CO)C(=O)NCC(=O)N[C@@H](CO)C(N)=O` [Example 671], the EC50 turned out to be 152 nM at human GcgR; 0.657 nM on hGIPR [1]; 0.166 nM on hGLP-1R [2]; 1.81 nM at hGcgR; 0.00807 nM on hGIPR [3]; 17.6 nM at hGLP-1R [4].
